According to a melting point compilation (Tetko et al.; mined from patent text by program, amines drawn as free bases though some values may be those of a salt):

Compound	melting point
O=S(=O)(Nc1ccc2c(OCc3ccc(Cl)cc3Cl)cccc2c1)C(F)(F)F	142 to 144 °C
Cc1nc(N2CCN(Cc3ccccc3C(=O)O)C2=O)sc1C(=O)NCc1ccccc1	153 to 156 °C
CCOC(=O)C(C)(Cc1ccc(O)c(OC)c1)NN (stereo not drawn)	114 to 116 °C
Cc1oc(-c2ccccc2)nc1CCOc1ccc([N+](=O)[O-])cn1	110 to 112 °C
Cc1csc2nc3ccccc3c(=O)n12	180 °C
COCCOc1ccc(COC(=O)NS(=O)(=O)NCC2CC2)c(Oc2ncc(C(F)(F)F)cc2Cl)c1	150 °C
CCCCn1c(-c2ccccc2)nc(Cl)c1CC(=O)O	189 to 190 °C
O=C(c1c[nH]c2c1ccc1c3ccccc3[nH]c12)C(F)(F)F	> 295 °C
O=c1ncn(Cc2ccc(Cl)cc2)c2cc(-c3ccc(OCc4ccccn4)cc3)sc12	257 to 259 °C
OCCOc1ccc2nc(S)sc2c1	162 to 165 °C
CNC(=O)c1ccccc1Nc1nc(Nc2cc3c(cc2OC)N(C)C(=O)OCC3)ncc1C(F)(F)F	210 to 212 °C
CC(=O)OCCc1cc2c(s1)S(=O)(=O)CCc1cc(=O)n(-c3ccc(Cl)cc3)nc1-2	137 to 140 °C
CSc1ccccc1-c1ccc(C(=O)O)cc1	220 to 222 °C
COC(=O)C1=C(C)NC(C)=C(C(=O)OCCN2CCN(C(c3ccc(F)cc3)c3ccc(F)cc3)CC2)C1c1ccccc1[N+](=O)[O-] (stereo not drawn)	90 to 93 °C
CC(C)OP(=O)(OCN1C(=O)c2c(C(C)C)cc(OCC(=O)OCc3ccccc3)cc2S1(=O)=O)OC(C)C	93 to 94 °C
CCCN1CCN(c2cc(-c3ccc(F)cc3F)c3c(n2)CCCCCC3)CC1	108 to 109 °C
CCOC(=O)c1c[nH]cc1-c1ccc(C)cc1	154 to 155 °C
COc1ccc(CNc2ncnc3c2ncn3C2OC(Cn3cc(Cc4ccccc4)nn3)C(O)C2O)cc1 (stereo not drawn)	123 to 124 °C
C#CCOc1cc(-c2ccccc2)ncn1	65.1 °C
CCOc1cc(Cc2cnc(N)nc2N)cc2c1OC(C)(C)C=C2C(C)(O)CC (stereo not drawn)	127 to 128 °C
CC1CCC(C(C)C)C(OC(=O)C(=O)Nc2nc(-c3ccccc3)cs2)C1 (stereo not drawn)	98 to 100 °C
O=S(c1cn(-c2c(Cl)cc(C(F)(F)F)cc2Cl)c(Cl)n1)C(F)(F)F (stereo not drawn)	148 °C
CCCc1nc(C(C)(C)O)c(C(=O)O)n1Cc1ccc(-c2ccccc2-c2nnn[nH]2)cc1	166 to 169 °C
COc1cc2c(Oc3ccc(Cl)cc3F)ncnc2cc1OCc1ccccc1	179 to 180 °C
Nc1nc(O)c2c(n1)NCC(CCc1nc(C(=O)N[C@@H](CCC(=O)O)C(=O)O)c[nH]1)C2 (stereo partly drawn)	> 260 °C

Compound	melting point
CCOC(=O)c1c(N2CCN(C(=O)c3cccs3)CC2)c2cccnc2[nH]c1=O	239 °C
O=c1c2ccccc2oc2cc(OCC3CO3)cc(O)c12 (stereo not drawn)	197 °C
CN(C(=O)C1CCC1)c1cccc(-c2ccnc3c(C(=O)c4ccco4)cnn23)c1	166 to 167 °C
CCCN1CCCN(c2c(N3CCCN(CCC)CC3)c(=O)c2=O)CC1	90 to 92 °C
C#Cc1ccc(C2SCC(C(C)(C)C)CS2)cc1 (stereo not drawn)	149 °C
Cc1ccc2c(c1)c1cc(C(=O)O)sc1n2C	216 to 219 °C
Cn1nc(Oc2ccc(Cl)c(O)c2)c(Cl)c1C(F)(F)F	106 to 108 °C
O=CNC1Cc2ccccc2C1	72 to 74 °C
Cc1cc(-n2nc(C#N)cc2-c2ccc(S(C)(=O)=O)cc2)ccc1F	144 °C
COCc1nc(-c2ccc(C(F)(F)F)cc2)ncc1COc1ccc(OC(C)(C)C(=O)O)c(C)c1	120 to 121 °C
O=C(O)[C@@H]1C[C@H](O)CN1C(=O)c1ccccc1	133 to 136 °C
CC(CCCC(C)(C)O)C1CCC2C3C=CC4=CC(=O)C5OC5C4(C)C3CCC12C (stereo not drawn)	162 to 163 °C
Cn1c(C(F)(F)F)cc(=O)n(-c2cc(OCCBr)c(Cl)cc2F)c1=O	125 to 127 °C
CCCc1ncc2cc(Cl)nc(OC)n12	76 to 77 °C
N#Cc1cc(C(F)(F)F)nn1-c1ccc(NC(=O)c2cccnc2F)cc1	150 to 151 °C
CC1(C)OC(=S)Nc2ccc(-c3csc(C#N)c3)cc21	242 to 243 °C
CC(C)CCCC(C)CCCC(C)CCCC(C)(O)C(CO)NCCO (stereo not drawn)	49.1 to 50.2 °C
CNCc1ccc(C2CCN(c3c(F)c(N)c4c(=O)c(C(=O)O)cn(C5CC5)c4c3F)C2)cc1 (stereo not drawn)	201 to 205 °C
CS(=O)(=O)n1cc(-c2ccccc2)c(=O)n1-c1ccccn1	112 to 114 °C
CNC(=O)N(O)C(C)C#Cc1ccc(Cl)cc1 (stereo not drawn)	151 to 153 °C
c1ccc(C(CCOc2ccc(CCC3=NCCCO3)cc2)(c2ccccc2)c2ccccc2)cc1	60 to 63 °C
COc1ccc(S(=O)(=O)Nc2cccc(F)c2/C=C/c2ccncc2)cc1	177 to 178 °C
C=C1C(=O)NC(=O)N1c1ccccc1	168 to 170 °C
Cc1cn(Cc2ccc(N)cc2)cn1	141 to 142 °C
CN(C)C(=O)N1CCc2ccc(S(=O)(=O)NC(=O)NCC3CCCC3)cc2CC1	165 to 166 °C

Compound	melting point
Cc1nc(-c2cnc3[nH]cc(C(=O)N[C@@H](C(=O)N4CC(C#N)C4)C4CC4)c3n2)cn1CC(F)(F)F	255 to 256 °C
CCOC(=O)c1ncn2c1CN(C)C(=O)c1ccccc1-2	163 to 165 °C
CC(C)NC1=NS(=O)(=O)c2cc(Br)cc(Br)c2N1	306 to 311 °C
Cc1cc2c(-c3ccccc3C)c(C#N)n(C)c(=O)c2cc1C	217 to 218 °C
Cc1cc(-c2cc(C(F)(F)F)nc(-n3cnc(-c4ccc(S(N)(=O)=O)cc4)c3)n2)ccc1C(F)(F)F	287 °C
COC(=O)CS(=O)(=O)Nc1c(F)cccc1Oc1nc(OC)cc(OC)n1	111 to 114 °C
CCC(=O)c1ccc(CCNS(=O)(=O)c2ccc(OC)cc2)cc1	107 °C
COc1cc(C=O)cc(-c2cc3c(cc2F)c(=O)c(C(=O)O)cn3C2CC2)c1OC	> 230 °C
FC(F)(F)c1ccc(CC[C@H]2CN(Cc3ccccc3)CCN2Cc2ccccc2)cc1	71 to 75 °C
CC(C)c1cccc(C(C)C)c1NC(=O)NC1CCOc2ccccc2C1 (stereo not drawn)	184 to 186 °C
CC(=O)Nc1ncc(CCc2ccc(NC(NC(=O)OC(C)(C)C)NC(=O)OC(C)(C)C)cc2)s1	203 to 205 °C
CC(C)(C)c1ccc(C(O)CCCN2CCC(C(O)(c3ccccc3)c3ccc(C(C)(C)C)cc3)CC2)cc1 (stereo not drawn)	179 to 182 °C
COc1ccc(N2C[C@](C)(COc3ccc(C#N)cc3)OC2=O)cc1	147 to 149 °C
CCN(CC)c1ccc(C=NNC(=O)c2ccc(O)cc2)cc1	228 °C
CCOC(=O)Nc1ccc2c(c1)CCC2=O	181 to 182 °C
COc1ccc(N2CCN(c3ccc(-n4cnn([C@H](C)[C@@]5(c6ccc(F)cc6F)CO5)c4=O)cc3)CC2)cc1	175 to 176 °C
Cc1cc(Oc2ccc(Cc3ccccc3)cc2)cc(C)c1N	61 to 63 °C
Cc1ccnc(C(=O)c2[nH]c3ccc(C(F)(F)F)cc3c2CC(=O)O)c1	218 to 225 °C
CCCCc1nc2c(N)nc3ccccc3c2n1CCNC(=O)CCCCC1SCC2NC(=O)NC21 (stereo not drawn)	124 to 126 °C
Nc1c(F)c(F)c(F)c(F)c1NC(=S)Nc1c(Cl)cccc1Cl	> 300 °C
CCOC(=O)c1cc([N+](=O)[O-])c2ccccn2c1=O	169 to 170 °C
CSc1nn(C)c2ccccc2c1=O	173 to 175 °C
O=C1c2cc(O)ccc2OCC1Cc1ccncc1 (stereo not drawn)	188 to 190 °C
CCc1noc(C)c1-c1[nH]c2ccccc2c1C(=O)CCC(=O)O	98 to 110 °C
O=c1nc(-c2cccc(CCOP(=O)(O)O)n2)sc2ccccc12	235 to 237 °C

Compound	melting point
O=[N+]([O-])C=C1NCCN1Cc1ccc(OCC(F)(F)F)nc1	132 to 135 °C
NC(=O)c1[nH]c2ccc(Cl)cc2c1S(=O)(=O)c1ccccc1Cl	267 °C
CCOC(=O)c1ncc2[nH]c3ccc(C(=O)OCc4ccccc4)cc3c2c1CC	212 to 215 °C
CCOP(=O)(Cc1ccc(NC(=O)/C=C/c2cn[nH]c2-c2ccc(F)cc2)cc1)OCC	181 to 182 °C
COC(=O)N(COc1ccc(Cl)cc1Cl)c1ccc(Cl)cc1	70 to 80 °C
CON=Cc1ccc2c(c1)ncn2-c1cccc(-n2ccnc2)c1	197 to 199 °C
CC#CCOc1ccc(S(=O)(=O)N2CCOCC2C(=O)NO)cc1 (stereo not drawn)	68 to 72 °C
CCc1cc(CC)c2ccc(=O)n(CCN(C)C)c2n1	59.5 to 61 °C
C=CCOc1ccccc1-c1ncc(C(N)=O)c(=O)[nH]1	202 to 204 °C
Nc1ncnc2c1c(-c1cccc(O)c1)cn2-c1cccc(OCCCn2ccnc2)c1	120 to 122 °C
CCN1c2ncc(COc3cccc4[nH]ccc34)cc2C(=O)N(C)c2ccc(Cl)nc21	183 to 185 °C
CCCCCCCCCCCCCCCCOc1ccc(OCC(=O)NCCc2ccccn2)cc1	74 to 75 °C
Cn1nnnc1SCC1c2cc(O)c(O)cc2CCN1C(=O)OCC(Cl)(Cl)Cl (stereo not drawn)	201 to 207 °C
C=CCNc1nc(CO)cs1	74 to 75 °C
Cc1nc2n(c(=O)c1CCO)CCS2	149 °C
Cc1cc(Oc2ncc(C(F)(F)F)cc2Cl)nn1C(=O)Nc1cccc([N+](=O)[O-])c1	172 to 174 °C
CCN(CC)C(=O)N(C1CCCCC1)C1CCN(C(=O)C(Cc2ccc(Cl)cc2)NC2CCNCC2)CC1 (stereo not drawn)	> 220 °C
CC(=NOCC(N)=O)c1ccc(Cl)c(Cl)c1	111 to 112 °C
Nc1sc2c(c1C(=O)c1cc3ccccc3o1)CCCC2	86 to 89 °C
CC(C)(C(=O)O)c1cn2nc(NCCCN3CCC(OC(c4ccccc4)c4ccccc4)CC3)ccc2n1	205 to 206 °C
CC1CC2C3CCC4=CC(=O)C=CC4(C)C3=CCC2(C)C1C(=O)CN1CCN(c2cc(NC34CC5CC(CC(C5)C3)C4)nc(NC34CC5CC(CC(C5)C3)C4)n2)CC1 (stereo not drawn)	210 to 220 °C
Cc1cc(OCc2ccccc2)cc2nc(OC(C)C)oc(=O)c12	137 to 138 °C
CCOC(=O)c1sc(C)nc1OC(=S)N(C)C	87 to 90 °C
